US5057324A, “Kallikrein inhibitor substance, a process for preparation and pharmaceutical compositions thereof” (priority 1987, dated 1991)

Test system: formation of kallikrein
Assay: Inhibitory action against the formation of kallikrein (kaolin-activated human plasma, synthetic substrate)
Format: biochemical
Conditions: human plasma diluted with saline, kaolin activation, substrate D-Pro-Phe-Arg-p-nitroaniline
Description: Kallikrein is a group of proteinase widely distributed in the plasma and tissues of various kinds of animals. […] The inhibitory action of the substance of the present invention against the formation of kallikrein was assayed according to the method described in Example 1 of European Patent Publication No.0259857. That is, in the primary reaction, kaolin suspension was added to the human plasma diluted with physiological saline. After a certain while, Lima Bean trypsin inhibitor was added to terminate the activation of kallikrein. In the second reaction, the amount of kallikrein formed in the primary reaction was measured by the use of a synthetic substrate specific to kallikrein, such as D-Pro-Phe-Arg-p-nitroaniline. In the above reaction system, the activity of the test substance to inhibit the formation of kallikrein was measured by mixing the test substance with the human plasma prior to addition of kaolin suspension.

CC(C(=O)O)c1cccc(C(=O)c2ccccc2)c1 (stereo not shown) [Ketoprofen]
IC50 = Concentration 50% inhibiting the formation of kallikrein: 700 µg/mL
